In patent US20110054034A1, “METHODS OF USING […] AS ANTIMICROBIAL AGENTS” (priority 2008, published 2011):

Assays:
Format in all cases: in vivo
[1] = system: gram+bacterial infection on the skin; assay: Treating a topical infection in a human; details: 2.5% cream applied twice daily, after about 4 days
Source text: A 50 kg person is diagnosed by a dermatologist with a gram+bacterial infection on the skin of their left foot. They prescribed a 2.5% cream of 5-bromo-2-[[(2E)-3-(2-naphthalenyl)-1-oxo-2-butenyl]amino]benzoic acid which they applied twice daily.

badly infected wound = assay: Treating a systemic infection in a dog (infected wound); details: 15 kg dog, 300 mg twice a day mixed in food
Experimental: A 15 kg dog with a badly infected wound is given 300 mg twice a day mixed in his food of trans-3-(naphth-2-yl)-but-2-enoic acid-N-(2-carboxyphenyl)amide. After 2 days the wound looks better and after 5 days it is almost healed.

S. aureus = assay: Treating a systemic infection in a human; details: two 300 mg tablets three daily
Experimental: A 70 kg person has a 102° fever and a bad cough. An internist diagnoses their problem as a systemic gram+bacterial infection of S. aureus. They prescribe trans-3-(naphth-2-yl)but-2-enoic acid-N-(2-carboxyphenyl)amide with the directions to take two 300 mg tablets three daily which the patient does.

C/C(=C\C(=O)Nc1ccc(Br)cc1C(=O)O)c1ccc2ccccc2c1 [5-bromo-2-[[(2E)-3-(2-naphthalenyl)-1-oxo-2-butenyl]amino]benzoic acid]
appearance of the skin [1]: appears normal
gram+bacterial infection on the skin of the foot [1]: the infection was gone

C/C(=C\C(=O)Nc1ccccc1C(=O)O)c1ccc2ccccc2c1 [trans-3-(naphth-2-yl)-but-2-enoic acid-N-(2-carboxy-phenyl)-amide]
appearance of the infected wound (badly infected wound; after 2 days): looks better
healing of the infected wound (badly infected wound; after 5 days): almost healed
cough (S. aureus; after five days): cough is gone
temperature (S. aureus; after five days): temperature is normal
fever (S. aureus; after two days): the fever comes down
